test system: HIV; experiment: HIV infection in cell culture (syncytium formation in HIV-infected PBLs, modified method of Pauwels et al.); assay type: cell-based; settings: Human immunodeficiency virus 1, Lymphocyte, 72 h; HIV-infected normal human blood lymphocytes (PBL's); concentration suppressing 50% (ca. 10 Syncytien) of virus-induced syncytia; microscopic read-out day 3 to 6 after infection, 37°C
Method: Der HIV-Test wurde mit geringen Modifikationen nach der Methode von Pauwels et al. [vgl. Journal of Virological Methods 20, (1988), 309-321] durchgeführt.
Normale menschliche Blutlymphozyten (PBL's) wurden über Ficoll-Hypaque angereichert und im RPMI 1640, 20% fötales Kälberserum mit Phythaemagglutinin (90 µg/ml) und Interleukin-2 (40 U/ml) stimuliert. Zur Infektion mit dem infektiösen HIV wurden PBL's pelletiert und das Zellpellet wurde anschließend in 1 ml HIV-Virusadsorptionslösung suspendiert und 1 Stunde bei 37°C inkubiert.
Die Virusadsorptionslösung wurde zentrifugiert und das infizierte Zellpellet in Wachstumsmedium aufgenommen, so daß 1 x 10^5 Zellen pro ml eingestellt waren. Die derart infizierten Zellen wurden zu 1 x 10^4 Zellen/Napf in die Näpfe von 96er Mikrotiterplatten pipettiert.
Die erste vertikale Reihe der Mikrotiterplatte enthielt nur Wachstumsmedium und Zellen, die nicht infiziert, aber ansonsten genauso wie oben beschrieben, behandelt worden waren (Zellkontrolle). Die zweite vertikale Reihe der Mikrotiterplatte erhielt nur HIV-infizierte Zellen (Viruskontrolle) in Wachstumsmedium. Die übrigen Näpfe enthielten die erfindungsgemäßen Verbindungen in unterschiedlichen Konzentrationen, ausgehend von den Näpfen der 3. vertikalen Reihe der Mikrotiterplatte, von der die Prüfsubstanzen in 2er Schritten 2^10fach verdünnt wurden.
Die Testansätze wurden so lange bei 37°C inkubiert, bis in der unbehandelten Viruskontrolle die für das HIV typische Syncytienbildung auftrat (zwischen Tag 3 und 6 nach Infektion), die dann mikroskopisch ausgewertet wurde. In der unbehandelten Viruskontrolle resultierten unter diesen Testbedingungen etwa 20 Syncytien, während die unbehandelte Zellkontrolle keine Syncytien aufwies.
Die IC50-Werte wurden als die Konzentration der erfindungsgemäßen Verbindungen ermittelt, bei der 50% (ca. 10 Syncytien) der virusinduzierten Syncytien durch die Behandlung mit der erfindungsgemäßen Verbindung unterdruckt waren.

Compared with `COc1cccc(N2CCN(c3cc4c(cc3F)c(=O)c(C(=O)O)cn4-c3ccc(Cn4ccnn4)cc3)CC2)c1` [Beispiel 8], `O=C(O)c1cn(-c2ccc(Cn3ccnn3)cc2)c2cc(N3CCN(c4cccc(Cl)c4)CC3)c(F)cc2c1=O` [Beispiel 14] is 4.3-fold lower in IC50: 3000 nM for the first, 700 nM for the second. The second is the more potent here.

First: O=C(O)c1cn(-c2ccc(Cn3ccnn3)cc2)c2nc(N3CCN(c4ccccc4)CC3)c(F)cc2c1=O [Beispiel 20, 6-Fluor-1,4-dihydro-4-oxo-7-(4-phenylpiperazin-1-yl)-1-[4-(1H-1,2,3-triazol-1-yl-methyl)-phenyl]-1,8-naphthyridin-3-carbonsäure]
Second: O=C(O)c1cn(-c2ccc(Cn3ccnn3)cc2)c2nc(N3CCN(c4cccc(Cl)c4)CC3)c(F)cc2c1=O [Beispiel 23]
The IC50 of the first is 2-fold lower: 200 nM for the first, 400 nM for the second.

`O=C(O)c1cn(-c2ccc(Cn3nccn3)cc2)c2cc(N3CCN(c4cccc(Cl)c4)CC3)c(F)cc2c1=O` [Beispiel 31] and `O=C(O)c1cn(-c2cccc(Cn3ccnn3)c2)c2cc(N3CCN(c4cccc(Cl)c4)CC3)c(F)cc2c1=O` [Beispiel 69] are the same in IC50: 700 nM for the first, 700 nM for the second.

Going from `O=C(O)c1cn(-c2ccc(Cn3cncn3)cc2)c2cc(N3CCN(c4ccccc4)CC3)c(F)cc2c1=O` [Beispiel 39, 6-Fluor-1,4-dihydro-4-oxo-7-(4-phenylpiperazin-1-yl)-1-[4-(1H-1,2,4-triazol-1-yl-methyl)phenyl]-3-chinolin-carbonsäure] to `O=C(O)c1cn(-c2ccc(Cn3cncn3)cc2)c2nc(N3CCN(c4ccccc4)CC3)c(F)cc2c1=O` [Beispiel 50, 6-Fluor-1,4-dihydro-4-oxo-7-(4-phenylpiperazin-1-yl)-1-[4-(1H-1,2,4-triazol-1-yl-methyl)phenyl]-1,8-naphthyridin-3-carbonsäure], the IC50 rises from 250 nM to 500 nM (2-fold).

First: O=C(O)c1cn(-c2ccc(Cn3cncn3)cc2)c2nc(N3CCN(c4ccc(F)cc4)CC3)c(F)cc2c1=O [Beispiel 51]
Second: O=C(O)c1cn(-c2cccc(Cn3cncn3)c2)c2nc(N3CCN(c4ccc(Cl)cc4)CC3)c(F)cc2c1=O [Beispiel 92]
The IC50 of the first is 3-fold lower: 200 nM for the first, 600 nM for the second. The first is the more potent here.

First: CCOC(=O)c1cn(-c2ccccc2Cn2nccn2)c2cc(N3CCN(c4cccc(Cl)c4)CC3)c(F)cc2c1=O [Beispiel 113]
Second: CCOc1ccccc1N1CCN(c2c(F)cc3c(=O)c(C(=O)O)cn(-c4ccc(Cn5cncn5)cc4)c3c2F)CC1 [Beispiel 146]
The IC50 of the first is 2.9-fold higher: 2000 nM for the first, 700 nM for the second. The second is the more potent here.

From patent EP0612731B1, “Novel guinolone and naphthyridone derivatives” (BAYER AG, priority 1993, dated 1994)
